Molecular target: T1, PfFd-PfFNR (Plasmodium falciparum, UniProt C6KT68+Q8IED5)
T1 construct: gene FNR; recombinant PfFNR (E. coli TG1 pTrc99A) and PfFd (E. coli JM105 pTrc99A), purified; PfFd 2Fe-2S, PfFNR flavoprotein
Assay: cytochrome c reduction at […] nm, FNR-Fd electron transfer
Type: biochemical

T1 sequence (C6KT68 56-371): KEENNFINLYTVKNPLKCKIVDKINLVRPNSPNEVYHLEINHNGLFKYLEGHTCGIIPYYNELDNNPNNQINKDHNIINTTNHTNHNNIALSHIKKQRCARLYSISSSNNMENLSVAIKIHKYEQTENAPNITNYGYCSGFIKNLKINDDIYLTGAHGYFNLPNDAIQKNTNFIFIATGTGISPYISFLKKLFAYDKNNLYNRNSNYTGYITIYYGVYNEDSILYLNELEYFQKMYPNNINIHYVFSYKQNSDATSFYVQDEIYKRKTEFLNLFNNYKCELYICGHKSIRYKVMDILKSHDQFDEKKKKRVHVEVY
T1 sequence (Q8IED5 97-194 limits assumed): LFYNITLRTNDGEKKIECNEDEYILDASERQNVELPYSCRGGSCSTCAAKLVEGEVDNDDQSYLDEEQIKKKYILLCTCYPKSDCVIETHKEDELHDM

**Q.** `COc1ccc(/C=C/C(=O)c2ccccc2)cc1` [compound 10, (E)-3-(4-Methoxyphenyl)-1-phenylprop-2-en-1-one] was tested. Which inhibition at 100 µM did it give?
**A.** The inhibition at 100 µM was 4.69%.

**Q.** How did the inhibition at 100 µM turn out when `COc1cccc(/C=C/C(=O)c2ccccc2)c1` [compound 9, (E)-3-(3-Methoxyphenyl)-1-phenylprop-2-en-1-one] was run?
**A.** The inhibition at 100 µM was 0%.

**Q.** With `COc1ccc(/C=C/C(=O)c2ccc(N)cc2)c(OC)c1` [compound 5, (E)-1-(4-Aminophenyl)-3-(2,4-dimethoxyphenyl)prop-2-en-1-one] as the molecule, how does the inhibition at 100 µM read?
**A.** Its inhibition at 100 µM is 38.2%.

**Q.** For `COc1ccc(OC)c(/C=C/C(=O)c2ccc(N)cc2)c1` [compound 6, (E)-1-(4-Aminophenyl)-3-(2,5-dimethoxyphenyl)prop-2-en-1-one], which inhibition at 100 µM is on record?
**A.** Its inhibition at 100 µM is -14.1%.

**Q.** `O=C(/C=C/c1ccccc1)c1ccccc1` [compound 17, (E)-1,3-diphenyl-2-propen-1-one] was tested. Which inhibition at 100 µM did it give?
**A.** Its inhibition at 100 µM is 22.1%.

**Q.** With `COc1cccc(/C=C/C(=O)c2ccccc2)c1OC` [compound 11, (E)-3-(2,3-Dimethoxyphenyl)-1-phenylprop-2-en-1-one] as the molecule, how does the inhibition at 100 µM read?
**A.** The inhibition at 100 µM was -5.88%.

**Q.** Which inhibition at 100 µM does the source give for `COc1ccc(/C=C/C(=O)c2ccc(Br)cc2)cc1` [compound 14, (E)-1-(4-Bromophenyl)-3-(4-methoxyphenyl)prop-2-en-1-one] here?
**A.** Its inhibition at 100 µM is 7.35%.

**Q.** For `COc1ccccc1/C=C/C(=O)c1ccccc1` [compound 8, (E)-3-(2-Methoxyphenyl)-1-phenylprop-2-en-1-one], which inhibition at 100 µM is on record?
**A.** The inhibition at 100 µM was -10.3%.

**Q.** Which inhibition at 100 µM does the source give for `COc1ccc(/C=C/C(=O)c2ccccc2)c(OC)c1` [compound 12, (E)-3-(2,4-Dimethoxyphenyl)-1-phenylprop-2-en-1-one] here?
**A.** The inhibition at 100 µM was 6.25%.

**Q.** Which inhibition at 100 µM does the source give for `COc1ccc(OC)c(/C=C/C(=O)c2ccc(Br)cc2)c1` [compound 16, (E)-1-(4-Bromophenyl)-3-(2,5-dimethoxyphenyl)prop-2-en-1-one] here?
**A.** Its inhibition at 100 µM is 11.8%.

**Q.** With `COc1cccc(/C=C/C(=O)c2ccc(N)cc2)c1OC` [compound 4, (E)-1-(4-Aminophenyl)-3-(2,3-dimethoxyphenyl)prop-2-en-1-one] as the molecule, how does the inhibition at 100 µM read?
**A.** The inhibition at 100 µM was 31.6%.

**Q.** How did the inhibition at 100 µM turn out when `COc1ccc(/C=C/C(=O)c2ccc(Br)cc2)c(OC)c1` [compound 15, (E)-1-(4-Bromophenyl)-3-(2,4-dimethoxyphenyl)prop-2-en-1-one] was run?
**A.** Its inhibition at 100 µM is 26.5%.

**Q.** For `COc1ccccc1/C=C/C(=O)c1ccc(N)cc1` [compound 1, (E)-1-(4-Aminophenyl)-3-(2-methoxyphenyl)prop-2-en-1-one], which inhibition at 100 µM is on record?
**A.** Its inhibition at 100 µM is 15.8%.

**Q.** Which inhibition at 100 µM does the source give for `COc1cccc(/C=C/C(=O)c2ccc(N)cc2)c1` [compound 2, (E)-1-(4-Aminophenyl)-3-(3-methoxyphenyl)prop-2-en-1-one] here?
**A.** The inhibition at 100 µM was 22.4%.

**Q.** Which inhibition at 100 µM does the source give for `Nc1ccc(C(=O)/C=C/c2ccccc2)cc1` [compound 7, (E)-1-(4-Aminophenyl)-3-phenylprop-2-en-1-one] here?
**A.** The inhibition at 100 µM was 10.9%.

**Q.** How did the inhibition at 100 µM turn out when `COc1ccc(OC)c(/C=C/C(=O)c2ccccc2)c1` [compound 13, (E)-3-(2,5-Dimethoxyphenyl)-1-phenylprop-2-en-1-one] was run?
**A.** Its inhibition at 100 µM is 5.88%.

— article PMC6271513, “Design and Synthesis of Chalcone Derivatives as Inhibitors of the Ferredoxin — Ferredoxin-NADP^+ Reductase Interaction of Plasmodium falciparum: Pursuing New Antimalarial Agents” (Molecules, 2014)
